Broadly, the inhibition is the relative decrease from the control value, in per cent.

Active and inactive are the calls of the source. No rule for the calls is given here.

Drawing on PubChem BioAssay AID1117355 (Cheminformatics & Chemogenomics Research Group (CCRG), …, 2015), this text covers inhibition for 78 molecules.

Sequence of Glycogen synthase kinase-3 beta (Homo sapiens) (P49841 whole entry, looked up): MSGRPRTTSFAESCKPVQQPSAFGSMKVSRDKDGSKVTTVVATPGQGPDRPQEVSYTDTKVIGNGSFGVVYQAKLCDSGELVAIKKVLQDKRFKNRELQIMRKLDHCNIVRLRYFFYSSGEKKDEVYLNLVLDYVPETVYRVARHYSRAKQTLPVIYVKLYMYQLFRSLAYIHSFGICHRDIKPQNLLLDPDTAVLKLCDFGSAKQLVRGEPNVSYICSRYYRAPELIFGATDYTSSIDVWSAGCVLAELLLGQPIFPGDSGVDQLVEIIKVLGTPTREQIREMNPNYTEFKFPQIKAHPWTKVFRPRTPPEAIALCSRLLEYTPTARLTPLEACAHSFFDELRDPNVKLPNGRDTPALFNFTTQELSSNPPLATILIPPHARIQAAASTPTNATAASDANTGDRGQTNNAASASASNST

This assay has as its target Glycogen synthase kinase-3 beta (Homo sapiens) (UniProt P49841). Briefly: NPC library primary assay, GSK-3β enzyme inhibitors, biochemical, Homo sapiens, LANCE Ultra TR-FRET detection (AID 1117355). To be noted: LANCE Ultra TR-FRET kinase activity; at 20 µM (top of the series).
`C[C@@]12C(=O)OC(=O)[C@]1(C)C1CCC2O1`: the inhibition is 2.16% (inactive).
With `COC(=O)Nc1nc2ccc(Sc3ccccc3)cc2[nH]1` the figure was -21% (inactive); with `S=c1nc[nH]c2nc[nH]c12`, 20.7% (inactive).
In the case of `O=c1[nH]c(=O)n([C@H]2C[C@H](O)[C@@H](CO)O2)cc1F`, the inhibition was -21.3% (inactive).
With `Cc1ccc2nc(N)[nH]c(=O)c2c1Sc1ccncc1` the figure was -35.9% (inactive); with `CC(C)(C)C(=O)OCOP(=O)(COCCn1cnc2c(N)ncnc21)OCOC(=O)C(C)(C)C`, 7.97% (inactive); with `Cc1cc2c(C(C)C)c(O)c(O)c(C=O)c2c(O)c1-c1c(C)cc2c(C(C)C)c(O)c(O)c(C=O)c2c1O`, 7.52% (inactive).
On to `O=C(O)c1ccc(-n2nc(-c3ccccc3O)nc2-c2ccccc2O)cc1`, for which the inhibition was 37.5% (inactive).
The figure for `COc1cc2c(c(OC)c1OC)-c1ccc(OC)c(=O)cc1[C@@H](NC(C)=O)CC2` is 4.13% (inactive); for `Cc1cc(O)c2ccccc2c1O` it is 50.4%; for `CCCSc1ccc2nc(NC(=O)OC)[nH]c2c1` it is -11.3% (inactive).
Consider `CC[C@@]1(O)C(=O)OCc2c1cc1n(c2=O)Cc2c-1nc1ccccc1c2/C=N/OC(C)(C)C`, for which the inhibition was 16.9% (inactive).
As for `O=c1[nH]c(=O)n([C@H]2C[C@H](O)[C@@H](CO)O2)cc1C(F)(F)F`, the inhibition was 17.2% (inactive).
As for `Oc1c(Cl)cc(Cl)cc1Sc1cc(Cl)cc(Cl)c1O`, the inhibition was 81.3%.
For the molecule `[O-][n+]1ccccc1SSc1cccc[n+]1[O-]`, the inhibition is -25.6% (inactive).
`Cc1nc(N)nc(N)c1-c1ccc(Cl)c(Cl)c1`: the inhibition was -1.14% (inactive).
With `Cc1cc(=O)c2c(O)c3c(O)cc(=O)c4c3c3c(cc(O)c1c23)C(C)(C)C=4O` the figure was 60.6%; with `COc1ccc2cc1Oc1ccc(cc1)C[C@H]1c3c(cc4c(c3Oc3cc5c(cc3OC)CCN(C)[C@@H]5C2)OCO4)CCN1C`, 2.24% (inactive).
As to `COc1cc(-c2ccc(=O)[nH]n2)ccc1OC(F)F`, the inhibition was -21.7% (inactive).
`COC(=O)Nc1nc2ccc(C(=O)C3CC3)cc2[nH]1`: the inhibition was 54.4%.
In the case of `CCN(CC)CCNC(=O)c1c(C)[nH]c(/C=C2\C(=O)Nc3ccc(F)cc32)c1C`, the inhibition is 62.9%.
The figure for `COc1cc2nc(N3CCN(C(=O)c4ccco4)CC3)nc(N)c2cc1OC` is -50.4% (inactive).
Regarding `CNC(=O)c1cc(Oc2ccc(NC(=O)Nc3ccc(Cl)c(C(F)(F)F)c3)cc2)ccn1`, the inhibition is 47.6% (inactive).
The figure for `O=[N+]([O-])c1ccc(O)c2ncccc12` is -9.81% (inactive).
For `O=C(CCl)c1ccc(Cl)cc1Cl`, the inhibition was 9.91% (inactive).
With `CCN(CC)CCNc1ccc(CO)c2sc3ccccc3c(=O)c12` the figure was 24.6% (inactive).
As to `COc1c(C)c2c(c(O)c1C/C=C(\C)CCC(=O)OCCN1CCOCC1)C(=O)OC2`, the inhibition was 11.3% (inactive).
Take `COc1cc(NCc2ccc3nc(N)nc(N)c3c2C)cc(OC)c1OC`: the inhibition was 2.46% (inactive).
The figure for `CCCCc1oc2ccccc2c1C(=O)c1cc(I)c(OCCN(CC)CC)c(I)c1` is 26% (inactive); for `CCCCCCNC(=O)n1cc(F)c(=O)[nH]c1=O` it is -7.61% (inactive); for `CCC(C)n1ncn(-c2ccc(N3CCN(c4ccc(OC[C@H]5CO[C@](Cn6cncn6)(c6ccc(Cl)cc6Cl)O5)cc4)CC3)cc2)c1=O` (stereo partly drawn) it is 14.1% (inactive).
For the molecule `COc1cc([C@@H]2c3cc4c(cc3[C@H](O)[C@H]3COC(=O)[C@H]23)OCO4)cc(OC)c1OC`, the inhibition is 26.6% (inactive).
Consider `COC(=O)Nc1nc2ccc(C(=O)c3ccccc3)cc2[nH]1`, for which the inhibition is 25.4% (inactive).
Regarding `C=C(C)[C@H]1Cc2c(ccc3c2O[C@@H]2COc4cc(OC)c(OC)cc4[C@@H]2C3=O)O1`, the inhibition was 21.6% (inactive).
As to `CC(=O)[C@]1(O)Cc2c(O)c3c(c(O)c2[C@@H](O[C@H]2C[C@H](N)[C@H](O)[C@H](C)O2)C1)C(=O)c1ccccc1C3=O`, the inhibition was 5.63% (inactive).
The figure for `CCCCCCCCCCCCCCCC[n+]1ccccc1` is -21.5% (inactive); for `CC[C@]1(O)C[C@H]2CN(CCc3c([nH]c4ccccc34)[C@@](C(=O)OC)(c3cc4c(cc3OC)N(C=O)[C@H]3[C@@](O)(C(=O)OC)[C@H](OC(C)=O)[C@]5(CC)C=CCN6CC[C@]43[C@@H]65)C2)C1` it is -0.84% (inactive); for `CN1CC[C@H](c2c(O)cc(O)c3c(=O)cc(-c4ccccc4Cl)oc23)[C@H](O)C1` it is 99.9%.
With `Cc1cc(C)c(/C=C2\C(=O)Nc3ccccc32)[nH]1` the figure was -34.3% (inactive); with `NC(=NCCCCCCN=C(N)/N=C(\N)Nc1ccc(Cl)cc1)/N=C(\N)Nc1ccc(Cl)cc1`, 0.77% (inactive).
With `CC[C@@H]([C@H](C)O)n1ncn(-c2ccc(N3CCN(c4ccc(OC[C@@H]5CO[C@@](Cn6cncn6)(c6ccc(F)cc6F)C5)cc4)CC3)cc2)c1=O` the figure was 8.55% (inactive); with `CC(C)C[C@H](NC(=O)[C@H](CCc1ccccc1)NC(=O)CN1CCOCC1)C(=O)N[C@@H](Cc1ccccc1)C(=O)N[C@@H](CC(C)C)C(=O)[C@@]1(C)CO1`, 20.4% (inactive).
As to `CCCN(CCC)C(=O)C(CCC(=O)OCCCN1CCN(CCOC(=O)Cc2c(C)n(C(=O)c3ccc(Cl)cc3)c3ccc(OC)cc23)CC1)NC(=O)c1ccccc1` (stereo not drawn), the inhibition was 0.27% (inactive).
The figure for `O=C(CCCCCCC(=O)Nc1ccccc1)NO` is -28.8% (inactive).
With `CCCCC1C(=O)N(c2ccccc2)N(c2ccc(O)cc2)C1=O` (stereo not drawn) the figure was 5.48% (inactive); with `C=CC(=O)Nc1cc2c(Nc3ccc(F)c(Cl)c3)ncnc2cc1OCCCN1CCOCC1`, 31.2% (inactive).
For the molecule `COc1ccc(-c2ccc3cc(C(=O)O)ccc3c2)cc1C12CC3CC(CC(C3)C1)C2`, the inhibition was 79.4%.
The figure for `COC(=O)Nc1nc2ccc(C(=O)c3cccs3)cc2[nH]1` is 42.2% (inactive); for `Cc1nc(Nc2ncc(C(=O)Nc3c(C)cccc3Cl)s2)cc(N2CCN(CCO)CC2)n1` it is 38.8% (inactive).
The figure for `CC[C@]1(O)C[C@@H]2CN(CCc3c([nH]c4ccccc34)[C@@](C(=O)OC)(c3cc4c(cc3OC)N(C)[C@H]3[C@@](O)(C(=O)OC)[C@H](OC(C)=O)[C@]5(CC)C=CCN6CC[C@]43[C@@H]65)C2)C1` is -4.66% (inactive); for `Cc1ccccc1C(=O)Nc1ccc(C(=O)N2CCCC(N(C)C)c3ccccc32)cc1` (stereo not drawn) it is 18.2% (inactive); for `Oc1c(I)cc(I)c2cccnc12` it is -1.57% (inactive).
The figure for `COc1ccc(-c2nc3ccc(C4=NNC(=O)CC4C)cc3[nH]2)cc1` (stereo not drawn) is -64.9% (inactive).
On to `Nc1ccc2cc3ccc(N)cc3nc2c1`, for which the inhibition is -57.5% (inactive).
The figure for `COc1cccc2c1C(=O)c1c(O)c3c(c(O)c1C2=O)C[C@@](O)(C(C)=O)C[C@@H]3O[C@H]1C[C@H](N)[C@H](O)[C@H](C)O1` is 7.12% (inactive).
With `CN(C)c1ccc2nc3ccc(=[N+](C)C)cc-3sc2c1` the figure was -210% (inactive).
The figure for `O=C(Nc1ccc([N+](=O)[O-])cc1Cl)c1cc(Cl)ccc1O` is -11.3% (inactive); for `CCC1=C[C@@H]2CN(C1)Cc1c([nH]c3ccccc13)[C@@](C(=O)OC)(c1cc3c(cc1OC)N(C)[C@H]1[C@@](O)(C(=O)OC)[C@H](OC(C)=O)[C@]4(CC)C=CCN5CC[C@]31[C@@H]54)C2` it is 24.2% (inactive); for `O=C(NOCC1CC1)c1ccc(F)c(F)c1Nc1ccc(I)cc1Cl` it is -12.6% (inactive).
With `COC(=O)c1nc(Cl)c(Cl)nc1N`, the inhibition is 20.8% (inactive).
Take `Oc1c(Cl)cc(Cl)c2cccnc12`: the inhibition was -26.5% (inactive).
As to `C[n+]1c2cc(N)ccc2cc2ccc(N)cc21` (tested in a mixture with another compound), the inhibition is -24.7% (inactive).
With `CC(=O)Oc1ccc(C2(c3ccc(OC(C)=O)cc3)Oc3ccccc3NC2=O)cc1` the figure was 19% (inactive).
`Nc1nc(=S)c2[nH]cnc2[nH]1`: the inhibition is -30.7% (inactive).
The figure for `CCCCCCCCCCCCCC[N+](C)(C)C` is -4.51% (inactive).
With `CCN(CC)CCOc1ccc(/C(=C(\Cl)c2ccccc2)c2ccccc2)cc1` the figure was -11.9% (inactive); with `COC(=O)[C@H]1[C@H]2C[C@@H]3c4[nH]c5cc(OC)ccc5c4CCN3C[C@H]2C[C@@H](OC(=O)/C=C/c2ccc(O)c(OC)c2)[C@@H]1OC`, 7.56% (inactive).
The figure for `CC(C)(C)C1CCC(CC2=C(O)c3ccccc3C(=O)C2=O)CC1` (stereo not drawn) is 10.2% (inactive); for `Cc1cc(C2CCCCC2)n(O)c(=O)c1` it is 0.84% (inactive).
In the case of `O=C1c2c(O)ccc(O)c2C(=O)c2c(NCCNCCO)ccc(NCCNCCO)c21`, the inhibition is -5.18% (inactive).
With `CCc1nc(N)nc(N)c1-c1ccc(Cl)cc1`, the inhibition is -8.63% (inactive).
The figure for `Cc1ccc([N+](=O)[O-])[c]2c1[O][Hg]2` is 66.1%.
As for `Cc1nc2ccc(CN(C)c3ccc(C(=O)N[C@@H](CCC(=O)O)C(=O)O)s3)cc2c(=O)[nH]1`, the inhibition is 81.3%.
For `CCCCCCCCCCCCCCCCCCNC(=O)OC1CCN(C(=O)OC[C@H](COC(=O)N(Cc2cccc[n+]2CC)C(=O)c2ccccc2OC)OC)CC1`, the inhibition was 24% (inactive).
Regarding `Cn1cnc([N+](=O)[O-])c1Sc1ncnc2nc[nH]c12`, the inhibition was -18.2% (inactive).
With `CSc1ccc2c(c1)C(N1CCN(C)CC1)Cc1ccccc1S2` (stereo not drawn) the figure was 0.73% (inactive); with `COC(=O)Nc1nc2ccc(S(=O)c3ccccc3)cc2[nH]1` (stereo not drawn), -3.53% (inactive).
With `CC(C)C[C@H](NC(=O)[C@H](Cc1ccccc1)NC(=O)c1cnccn1)B(O)O`, the inhibition is 1.64% (inactive).
